Data reported in US20090130223A1, “COSMETIC PREPARATION WITH AQUAPORIN STIMULATORS AND THE USE THEREOF” (priority 2006, published 2009).

Test system: aquaporin-3 mRNA in human keratinocytes
Test: AQP-3 mRNA expression in human keratinocytes by quantitative RT-PCR
Assay type: cell-based
Conditions: 24 h, 3% w/v glycerol glucoside in culture medium (450 mOsm), compared with 1% w/v glycerin, 2.25% w/v glucose, and 1.5% w/v glycerol glucoside + 0.5% w/v glycerin
Method: To this end, human keratinocytes were treated in triplicate in cell culture (37° C., Medium Cambrex No. CC-3158 incl. Supplement kit No. CC-4152; +0.1 mM CaCl2) for 24 h as follows: • Untreated control (corresponds to 330 mOsm, isomolar culture medium) • Addition of 1% w/v glycerin to the culture medium (corresponds to 450 mOsm, osmotic stress) • Addition of 1.5% w/v glycerol glucoside and 0.5% w/v glycerin to the culture medium (corresponds to 450 mOsm osmotic stress, mixture ratio regarding number of particles 1:1) • Addition of 3% w/v glycerol glucoside to the culture medium (corresponds to 450 mOsm, osmotic stress) • Addition of 2.25% w/v glucose to the culture medium (corresponds to 450 mOsm, osmotic stress)
The different amounts used are due to the different molecular weights of the substances. The contribution to the increase in osmolarity in the culture medium depends solely on the added particle number, and this is the same in all of the tests.
After harvest and lysis the entire RNA was isolated from the cells and the aquaporin-3 mRNA relatively contained was determined by means of quantitative RT-PCR.
The concentration indication w/v means mass per volume, wherein 1.0% w/v corresponds to one gram substance in 100 ml solution.

Glyceryl glucoside was tested, and the “expression level of the aquaporin-3 mRNA relativized on 18S rRNA (stimulating effect)” value was “better stimulating effect than classic glycerin or glucose alone or a 1:1 mixture of glycerin and glyceryl glucoside”.
